Read-outs that look alike come from different tables or passages of the source.
Legend:
HCT 116 colon cancer = experiment: MTT proliferation inhibition, HCT 116; assay type: cell-based; details: Homo sapiens, HCT-116, read-out: Proliferation inhibition rate, HCT 116 Colon cancer
Text: (§1) 1. Cytotoxicity Assay Using Human Tumor Cell Lines
(§2) Paclitaxel was used as the positive drug.

[1] = system: breast cancer cell line MCF-7; experiment: IC50 on breast cancer cell line MCF-7; assay type: cell-based; details: Homo sapiens, MCF7, 72 h, read-out: MCF-7 (IC50, nM)
Protocol: From the activity evaluation data of the above-mentioned preliminary screen, it can be seen that the series of taxanes derivatives synthesized in the present invention have activity. Afterward, the compounds are investigated to examine their IC50 values on breast cancer cell line MCF-7. […] Experiments for each compound were independently repeated for three times and multiple holes were used in each experiment. The exposure time of drugs was 72 hours.

[2] = system: NCI-H460 non-small cell lung cancer; experiment: MTT proliferation inhibition, NCI-H460; assay type: cell-based; details: Homo sapiens, NCI-H460, read-out: Proliferation inhibition rate, NCI-H460 Non-small cell lung cancer
Text: as §1, §2

[3] = system: MDA-MB-436 breast cancer cells; experiment: MTT proliferation inhibition, MDA-MB-436; assay type: cell-based; details: Homo sapiens, MDA-MB-436, read-out: Proliferation inhibition rate, MDA-MB-436 Breast cancer
Text: as §1, §2

Du145 prostate cancer = experiment: MTT proliferation inhibition, Du145; assay type: cell-based; details: Homo sapiens, DU-145, read-out: Proliferation inhibition rate, DU145 Prostate cancer
Text: as §1, §2

[4] = system: A549 non-small cell lung cancer; experiment: MTT proliferation inhibition, A549; assay type: cell-based; details: Homo sapiens, A549, read-out: Proliferation inhibition rate, A549 Non-small cell lung cancer
Text: as §1, §2

HT-29 colon cancer = experiment: MTT proliferation inhibition, HT-29; assay type: cell-based; details: Homo sapiens, HT-29, read-out: Proliferation inhibition rate, HT29 Colon cancer
Text: as §1, §2

BGC-823 gastric cancer = experiment: MTT proliferation inhibition, BGC-823; assay type: cell-based; details: Homo sapiens, BGC-823, read-out: Proliferation inhibition rate, BGC-823 Gastric cancer
Text: as §1, §2

[5] = system: MCF-7 breast cancer cells; experiment: MTT proliferation inhibition, MCF-7; assay type: cell-based; details: Homo sapiens, MCF7, read-out: Proliferation inhibition rate, MCF-7 Breast cancer
Text: as §1, §2

HL-60 leukemia = experiment: MTT proliferation inhibition, HL-60; assay type: cell-based; details: Homo sapiens, HL-60, read-out: Proliferation inhibition rate, HL60 Leukemia
Text: as §1, §2

A2780 ovarian cancer = experiment: MTT proliferation inhibition, A2780; assay type: cell-based; details: Homo sapiens, A2780, read-out: Proliferation inhibition rate, A2780 Ovarian cancer
Text: as §1, §2

A375 melanoma = experiment: MTT proliferation inhibition, A375; assay type: cell-based; details: Homo sapiens, A-375, read-out: Proliferation inhibition rate, A375 Melanoma
Text: as §1, §2

LN-18 = experiment: MTT proliferation inhibition, LN-18; assay type: cell-based; details: Homo sapiens, LN-18, read-out: Proliferation inhibition rate, LN-18 Gastric canser
Text: as §1, §2

B16 melanoma = experiment: MTT proliferation inhibition, B16; assay type: cell-based; details: B16, read-out: Proliferation inhibition rate, B16 Melanoma
Text: as §1, §2

[6] = Caco-2 bidirectional transport, efflux ratio; details: human, Caco-2
Text: (§3) Human-derived colorectal adenocarcinoma cell line Caco-2 cell monolayer model was used to study the bidirectional transport of the target compounds from the apical (AP) side to the basolateral (BL) side and from BL side to AP side. HPLC was used for quantitative analysis to calculate transport parameters, apparent permeability coefficient (Papp) and the efflux ratio.

K562 leukemia = experiment: MTT proliferation inhibition, K562; assay type: cell-based; details: Homo sapiens, K562, read-out: Proliferation inhibition rate, K562 Leukemia
Text: as §1, §2

[7] = Caco-2 cell monolayer membrane transport assay (Papp and recovery); assay type: in vitro ADME; details: human, Caco-2, Caco-2, A-B
Text: Caco-2 Cell Monolayer Membrane Transport Assay
as §3

LNCaP prostate cancer = experiment: MTT proliferation inhibition, LNCaP; assay type: cell-based; details: Homo sapiens, read-out: Proliferation inhibition rate, LNCaP Prostate cancer
Text: as §1, §2

Hela cervical cancer = experiment: MTT proliferation inhibition, HeLa; assay type: cell-based; details: Homo sapiens, read-out: Proliferation inhibition rate, HeLa Uterin cancer
Text: as §1, §2

[8] = Mean, read-out: Recovery rate in mass, Mean
[9] = Sample-01, read-out: Papp A-B, Sample-01
[10] = Sample-01, read-out: Recovery rate in mass, Sample-01
[11] = Sample-02, read-out: Papp A-B, Sample-02
[12] = Sample-02, read-out: Recovery rate in mass, Sample-02

| SMILES | inhibition at 1 µM (HCT 116 colon cancer) [%] | IC50 [1] [nM] | inhibition at 1 µM [2] [%] | inhibition at 1 µM [3] [%] | inhibition at 1 µM (Du145 prostate cancer) [%] | inhibition at 1 µM [4] [%] | inhibition at 1 µM (HT-29 colon cancer) [%] | inhibition at 1 µM (BGC-823 gastric cancer) [%] | inhibition at 1 µM [5] [%] | inhibition at 1 µM (HL-60 leukemia) [%] | inhibition at 1 µM (A2780 ovarian cancer) [%] | inhibition at 1 µM (A375 melanoma) [%] | inhibition at 1 µM (LN-18) [%] | inhibition at 1 µM (B16 melanoma) [%] | Papp A→B [6] [×10⁻⁶ cm/s] | Papp B→A [6] [×10⁻⁶ cm/s] | efflux ratio [6] | inhibition at 1 µM (K562 leukemia) [%] | recovery [7, 8] [%] | Papp A→B [7, 9] [×10⁻⁶ cm/s] | also measured |
| --- | --- | --- | --- | --- | --- | --- | --- | --- | --- | --- | --- | --- | --- | --- | --- | --- | --- | --- | --- | --- | --- |
| CO[C@H]1C(=O)[C@]2(C)[C@@H](OC)C[C@H]3OC[C@@]3(OC(C)=O)[C@H]2[C@H](OC(=O)c2ccccc2)[C@]23OC(=O)O[C@H]2[C@H](OC(=O)[C@H](O)[C@@H](NC(=O)N(C)C)c2ccccc2)C(C)=C1C3(C)C [PCMI-03] | 58.3 | 2.89 ± 0.1 | 85.3 | 80.1 | 85 | 68.6 | 88.5 | 92.3 | 95.3 | 95.7 | 95.1 | 88.6 | 95.3 | 78.2 | 2.97 | 28.6 | 9.62 | 93.6 | 61.7 | 3.45 | Papp A→B ([7]; Mean, read-out: Papp A-B, Mean): 3.67 ×10⁻⁶ cm/s; recovery [7, 10]: 65.1%; Papp A→B [7, 11]: 3.89 ×10⁻⁶ cm/s; recovery [7, 12]: 58.2%; inhibition at 1 µM (LNCaP prostate cancer): 82.6%; inhibition at 1 µM (Hela cervical cancer): 99.4% |
| COC(=O)O[C@H]1C[C@H]2OC[C@@]2(OC(C)=O)[C@H]2[C@H](OC(=O)c3ccccc3)[C@]34OC(=O)O[C@H]3[C@H](OC(=O)[C@H](O)[C@@H](NC(=O)OC(C)(C)C)c3ccccc3)C(C)=C([C@@H](OC)C(=O)[C@]12C)C4(C)C [PCMI-17] | 69.6 | 3.84 ± 0.08 | 89.2 | 85.1 | 90.7 | 80.3 | 88.5 | 95.1 | 93.1 | 97.3 | 96.6 | 94.9 | 95.9 | 82.3 | 2.4 | 5.74 | 2.39 | 96.5 | 88.7 | 4.7 | recovery [7, 10]: 104%; Papp A→B [7, 11]: 3.16 ×10⁻⁶ cm/s; recovery [7, 12]: 73.9%; inhibition at 1 µM (LNCaP prostate cancer): 86.7%; inhibition at 1 µM (Hela cervical cancer): 101% |
| COC(=O)O[C@H]1C[C@H]2OC[C@@]2(OC(C)=O)[C@H]2[C@H](OC(=O)c3ccccc3)[C@]34OC(=O)O[C@H]3[C@H](OC(=O)[C@H](O)[C@@H](NC(=O)N(C)C)c3ccccc3)C(C)=C([C@@H](OC)C(=O)[C@]12C)C4(C)C [PCMI-19] | 67.3 | 6.58 ± 0.02 | 87.3 | 83.6 | 90 | 80.2 | 87.2 | 93.3 | 89.7 | 96.9 | 94.2 | 95.2 | 93.9 | 83.7 | 2.79 | 21.3 | 7.65 | 92.7 | 74.5 | 3.78 | Papp A→B ([7]; Mean, read-out: Papp A-B, Mean): 3.92 ×10⁻⁶ cm/s; recovery [7, 10]: 78.2%; Papp A→B [7, 11]: 4.05 ×10⁻⁶ cm/s; recovery [7, 12]: 70.7%; inhibition at 1 µM (LNCaP prostate cancer): 87.2%; inhibition at 1 µM (Hela cervical cancer): 99.6% |

From patent US9890175B2, “Taxane compound, and preparation method and use thereof” (JIANGSU TASLY DIYI PHARMACEUTICAL CO., LTD., priority 2013, dated 2018)
